Assay results as given in patent US10526316B2, “Quinoxaline and pyridopyrazine derivatives as PI3Kβ inhibitors” (Janssen Pharmaceutica NV, priority 2015, dated 2020).
Where two headings read alike, the source gives them in different places.

Key:
PI3Kβ = molecular target: T1, PI3Kβ (Homo sapiens, UniProt P42338); test: Enzyme binding assay (KINOMEscan, DiscoveRx); details: PIK3Cβ_h, read-out: Kd PIK3Cβ_h
T1 construct: purchased DiscoveRx Corporation, San Diego (contract service, KINOMEscan)
Summary of the method: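 Using the KINOMEscan format, the enzyme binding affinity of each compound was determined. Each value is the inhibitor binding constant, Kd (nM).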

PI3Kδ = molecular target: T2, PI3Kδ (Homo sapiens, UniProt O00329); test: Enzyme binding assay (KINOMEscan, DiscoveRx); details: PIK3Cδ_h
T2 construct: purchased DiscoveRx Corporation, San Diego (contract service, KINOMEscan)
T2 sequence (O00329 1-1044): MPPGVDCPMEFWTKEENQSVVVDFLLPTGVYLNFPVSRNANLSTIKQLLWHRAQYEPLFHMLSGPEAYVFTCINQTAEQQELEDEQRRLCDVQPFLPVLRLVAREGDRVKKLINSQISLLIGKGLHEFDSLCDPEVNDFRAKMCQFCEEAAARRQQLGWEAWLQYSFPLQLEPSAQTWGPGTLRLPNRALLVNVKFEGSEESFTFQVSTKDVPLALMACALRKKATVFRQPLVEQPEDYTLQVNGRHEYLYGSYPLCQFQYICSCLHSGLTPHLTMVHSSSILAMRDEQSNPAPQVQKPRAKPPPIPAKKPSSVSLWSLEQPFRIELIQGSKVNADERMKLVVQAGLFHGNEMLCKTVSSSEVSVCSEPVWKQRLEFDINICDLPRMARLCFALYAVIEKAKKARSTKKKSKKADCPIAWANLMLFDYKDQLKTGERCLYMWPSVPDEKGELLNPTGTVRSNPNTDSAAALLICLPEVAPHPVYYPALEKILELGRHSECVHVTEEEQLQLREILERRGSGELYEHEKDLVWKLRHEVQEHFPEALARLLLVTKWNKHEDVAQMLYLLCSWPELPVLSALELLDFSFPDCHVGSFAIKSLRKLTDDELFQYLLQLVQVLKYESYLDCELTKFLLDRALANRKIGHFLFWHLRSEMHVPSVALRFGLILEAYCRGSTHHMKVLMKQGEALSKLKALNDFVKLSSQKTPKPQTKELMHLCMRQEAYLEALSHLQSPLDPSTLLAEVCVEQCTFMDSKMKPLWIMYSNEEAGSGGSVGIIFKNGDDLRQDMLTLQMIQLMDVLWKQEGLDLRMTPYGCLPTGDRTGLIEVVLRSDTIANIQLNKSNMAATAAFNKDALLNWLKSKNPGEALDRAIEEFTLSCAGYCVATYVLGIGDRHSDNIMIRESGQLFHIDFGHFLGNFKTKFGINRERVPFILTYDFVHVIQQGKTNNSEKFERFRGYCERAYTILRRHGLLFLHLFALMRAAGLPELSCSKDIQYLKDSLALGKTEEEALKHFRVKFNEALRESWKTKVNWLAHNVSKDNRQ
Summary of the method: (§1)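 Uses KINOMEscan technology to determine binding affinity toward the kinase enzymes.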

kinase enzymes [1] = molecular target: T3, kinase enzymes (Homo sapiens, UniProt P42336); test: Enzyme binding assay (KINOMEscan, DiscoveRx), further kinases of Table A; details: PIK3Cα_h
T3 construct: purchased DiscoveRx Corporation, San Diego (contract service, KINOMEscan)
Summary of the method: as §1

kinase enzymes [2] = molecular target: T4, kinase enzymes (Homo sapiens, UniProt P48736); test: as above; details: PIK3Cγ_h
T4 construct: purchased DiscoveRx Corporation, San Diego (contract service, KINOMEscan)
Summary of the method: as §1

[3] = tested on: Akt phosphorylated at Ser473 in PC-3 cells; test: Cellular assay: phosphorylation of Akt at Ser473 in PC-3 cells (MSD ELISA); assay type: cell-based; details: read-out: IC50 pAkt_S473
Summary of the method: (§2)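 PC-3 cells were exposed to compound or 0.3% DMSO for 60 min at 37° C, 5% CO2, then lysed in ice-cold buffer. Phospho-Akt was captured on site-specific antibody-coated plates and detected with Sulfo-tag anti-total Akt by electrochemiluminescence. IC50 values came from five-concentration response curves.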

[4] = tested on: Akt phosphorylated at Thr308 in PC-3 cells; test: Cellular assay: phosphorylation of Akt at Thr308 in PC-3 cells (MSD ELISA); assay type: cell-based; details: read-out: IC50 pAkt_Thr308
Summary of the method: as §2

kinase enzymes [5] = molecular target: T5, kinase enzymes (Homo sapiens, UniProt P42345); test: Enzyme binding assay (KINOMEscan, DiscoveRx), further kinases of Table A; details: MTOR_h
T5 construct: purchased DiscoveRx Corporation, San Diego (contract service, KINOMEscan)
Summary of the method: as §1

[6] = Homo sapiens, PC-3, 1 h, PC-3 cells, 60 min compound incubation, MSD ELISA
[7] = PC-3 cells, 60 min compound incubation, MSD ELISA

T4 sequence (P48736 whole entry): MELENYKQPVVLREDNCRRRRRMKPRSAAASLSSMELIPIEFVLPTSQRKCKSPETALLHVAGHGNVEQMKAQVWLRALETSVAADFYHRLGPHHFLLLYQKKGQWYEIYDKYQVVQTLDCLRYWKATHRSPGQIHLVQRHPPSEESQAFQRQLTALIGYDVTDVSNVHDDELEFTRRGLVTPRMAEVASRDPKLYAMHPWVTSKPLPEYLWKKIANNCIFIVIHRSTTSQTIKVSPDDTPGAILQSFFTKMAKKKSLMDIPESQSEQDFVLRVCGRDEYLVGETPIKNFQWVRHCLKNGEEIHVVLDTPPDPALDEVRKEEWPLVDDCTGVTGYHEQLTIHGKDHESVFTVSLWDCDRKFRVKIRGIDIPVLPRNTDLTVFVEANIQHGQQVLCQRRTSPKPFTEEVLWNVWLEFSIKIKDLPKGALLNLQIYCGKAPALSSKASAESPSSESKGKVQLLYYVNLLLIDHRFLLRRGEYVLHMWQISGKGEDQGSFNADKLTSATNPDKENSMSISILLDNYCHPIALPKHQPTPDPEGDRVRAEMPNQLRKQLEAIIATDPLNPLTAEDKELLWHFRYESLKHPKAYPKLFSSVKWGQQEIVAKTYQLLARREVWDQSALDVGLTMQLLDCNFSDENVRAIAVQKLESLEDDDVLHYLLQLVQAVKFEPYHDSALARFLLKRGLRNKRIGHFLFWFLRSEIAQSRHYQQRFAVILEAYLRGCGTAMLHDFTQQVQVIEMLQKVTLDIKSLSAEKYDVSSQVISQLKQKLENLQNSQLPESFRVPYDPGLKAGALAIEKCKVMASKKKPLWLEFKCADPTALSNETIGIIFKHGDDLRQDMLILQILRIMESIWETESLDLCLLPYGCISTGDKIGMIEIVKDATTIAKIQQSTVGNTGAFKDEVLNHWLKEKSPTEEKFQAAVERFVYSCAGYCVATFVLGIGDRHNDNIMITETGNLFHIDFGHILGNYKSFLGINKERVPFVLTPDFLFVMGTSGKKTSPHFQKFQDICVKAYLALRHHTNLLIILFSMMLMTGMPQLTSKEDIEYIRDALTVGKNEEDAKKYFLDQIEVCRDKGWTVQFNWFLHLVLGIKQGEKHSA
T1 sequence (P42338 whole entry): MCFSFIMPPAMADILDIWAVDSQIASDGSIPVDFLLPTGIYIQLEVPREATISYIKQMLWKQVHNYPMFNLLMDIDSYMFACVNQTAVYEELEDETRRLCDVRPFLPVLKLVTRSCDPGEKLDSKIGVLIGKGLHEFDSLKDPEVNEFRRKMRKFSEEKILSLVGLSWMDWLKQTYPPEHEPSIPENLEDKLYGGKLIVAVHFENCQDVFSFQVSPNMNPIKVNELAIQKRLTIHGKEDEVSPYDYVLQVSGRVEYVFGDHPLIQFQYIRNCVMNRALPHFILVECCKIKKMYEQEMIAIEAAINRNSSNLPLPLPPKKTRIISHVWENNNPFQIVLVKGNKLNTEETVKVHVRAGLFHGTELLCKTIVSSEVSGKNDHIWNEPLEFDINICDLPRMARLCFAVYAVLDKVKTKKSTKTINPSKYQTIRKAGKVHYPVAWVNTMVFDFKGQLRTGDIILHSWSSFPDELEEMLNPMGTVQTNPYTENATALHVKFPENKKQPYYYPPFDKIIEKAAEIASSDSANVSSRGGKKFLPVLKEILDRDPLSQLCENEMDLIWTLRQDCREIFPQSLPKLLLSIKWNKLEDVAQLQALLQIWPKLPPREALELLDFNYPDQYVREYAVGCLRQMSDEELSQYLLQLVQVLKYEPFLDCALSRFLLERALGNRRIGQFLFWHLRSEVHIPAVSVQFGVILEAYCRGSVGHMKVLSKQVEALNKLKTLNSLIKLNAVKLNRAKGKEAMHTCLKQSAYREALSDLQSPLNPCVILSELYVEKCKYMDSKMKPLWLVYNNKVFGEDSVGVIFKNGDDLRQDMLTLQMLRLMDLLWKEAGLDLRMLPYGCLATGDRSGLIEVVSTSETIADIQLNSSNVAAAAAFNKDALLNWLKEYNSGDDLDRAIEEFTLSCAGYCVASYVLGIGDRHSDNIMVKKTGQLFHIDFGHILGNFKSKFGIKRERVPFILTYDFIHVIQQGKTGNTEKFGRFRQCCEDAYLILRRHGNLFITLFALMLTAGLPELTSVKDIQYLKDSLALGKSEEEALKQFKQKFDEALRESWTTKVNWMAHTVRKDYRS
T3 sequence (P42336 whole entry): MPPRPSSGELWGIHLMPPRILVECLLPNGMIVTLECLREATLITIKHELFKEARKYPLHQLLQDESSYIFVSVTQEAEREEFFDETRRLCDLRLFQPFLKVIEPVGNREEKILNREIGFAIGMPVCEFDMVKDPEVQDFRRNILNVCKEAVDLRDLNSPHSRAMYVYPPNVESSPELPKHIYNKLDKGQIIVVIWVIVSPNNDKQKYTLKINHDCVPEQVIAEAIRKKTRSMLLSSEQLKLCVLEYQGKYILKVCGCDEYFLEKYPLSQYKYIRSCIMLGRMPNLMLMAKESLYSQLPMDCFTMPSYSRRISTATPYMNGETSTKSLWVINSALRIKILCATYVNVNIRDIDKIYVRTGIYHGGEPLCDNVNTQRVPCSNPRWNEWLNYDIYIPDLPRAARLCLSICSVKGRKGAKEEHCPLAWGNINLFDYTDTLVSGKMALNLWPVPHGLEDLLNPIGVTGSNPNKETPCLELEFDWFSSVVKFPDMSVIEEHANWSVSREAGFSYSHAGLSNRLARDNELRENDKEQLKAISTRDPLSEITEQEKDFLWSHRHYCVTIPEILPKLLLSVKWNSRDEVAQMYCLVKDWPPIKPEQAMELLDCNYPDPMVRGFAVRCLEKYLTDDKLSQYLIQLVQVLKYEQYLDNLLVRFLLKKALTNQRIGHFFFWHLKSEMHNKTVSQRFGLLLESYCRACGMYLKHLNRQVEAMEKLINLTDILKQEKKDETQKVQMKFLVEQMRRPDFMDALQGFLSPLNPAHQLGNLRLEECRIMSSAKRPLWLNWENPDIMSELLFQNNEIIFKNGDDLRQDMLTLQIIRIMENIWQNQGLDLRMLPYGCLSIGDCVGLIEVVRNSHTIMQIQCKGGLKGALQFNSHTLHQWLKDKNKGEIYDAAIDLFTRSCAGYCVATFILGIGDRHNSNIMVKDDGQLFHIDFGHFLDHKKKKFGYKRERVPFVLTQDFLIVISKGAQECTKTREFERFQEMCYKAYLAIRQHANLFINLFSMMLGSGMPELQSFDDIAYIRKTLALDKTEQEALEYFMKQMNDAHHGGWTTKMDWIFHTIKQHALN

| Kd (PI3Kβ) | Kd (PI3Kδ) | Kd (kinase enzymes [1]) | Kd (kinase enzymes [2]) | IC50 [3, 6] | IC50 [4, 6] | melting point | Kd (kinase enzymes [5]) | IC50 [4, 7] | IC50 [3, 7] | IC50 ([3]; Homo sapiens, PC-3, 1 h) | IC50 ([4]; Homo sapiens, PC-3, 1 h) | SMILES |
| --- | --- | --- | --- | --- | --- | --- | --- | --- | --- | --- | --- | --- |
| 204 nM | 10200 nM | 14200 nM | 2850 nM | > 513 nM | > 513 nM | 237 °C |  |  |  |  |  | C[C@H](Nc1cccc(F)c1)c1cc(C(=O)NCCO)cc2ncc(N3CCOCC3)nc12 [Compound 118] |
| 1 nM | 58 nM | 269 nM | 1620 nM | 22 nM | 14 nM | 80 °C | > 30200 nM |  |  |  |  | CN(C)C(=O)c1cc(C2CCCN2c2ccccc2)c2nc(N3CCOCC3)cnc2c1 (stereo not shown) [Compound 27] |
| 6 nM | 759 nM | 2140 nM | 6610 nM | 437 nM | 339 nM | 186 °C | > 30200 nM |  |  |  |  | CC(Nc1cccc(C#N)c1)c1cc(C(=O)N(C)C)cc2ncc(N3CCOCC3)nc12 (stereo not shown) [Compound 155] |
| 19 nM | 1070 nM | 5370 nM | 12900 nM | 339 nM |  | 136 °C | 26900 nM | 219 nM |  |  |  | CC(Oc1cccc(F)c1)c1cc(C(=O)NCCO)cc2ncc(N3CCOCC3)nc12 (single isomer, unassigned) [Compound 334a] |
| 1200 nM | 26300 nM | > 30200 nM | > 30200 nM |  |  | 80 °C | > 30200 nM | > 513 nM | > 513 nM |  |  | CNCCOCCN(C)C(=O)c1cc(C(C)Nc2cc(F)cc(F)c2)c2nc(N3CCOCC3)cnc2c1 (single isomer, unassigned) [Compound 174] |
| 13 nM | 2630 nM | 6610 nM | > 30200 nM | > 513 nM | 148 nM | 55 °C | > 30200 nM |  |  |  |  | CC(Oc1cc(F)cc(F)c1)c1cc(C(=O)N2CCOCC2)cc2ncc(N3CCO[C@H](C)C3)nc12 (mixture of isomers) [Compound 56] |
| 3 nM | 1000 nM | 1130 nM | 3000 nM | 65 nM | 28 nM | 80 °C | 24500 nM |  |  |  |  | COCCNCc1cc(C2CCCN2c2cc(F)cc(F)c2)c2nc(N3CCOCC3)cnc2c1 (stereo not shown) [Compound 103] |
| 0.2 nM | 776 nM | 3240 nM | 12600 nM | ~26.3 nM | 18 nM | 161 °C | 23400 nM |  |  |  |  | CN(C)CCNC(=O)c1cc(CNc2cc(F)cc(F)c2)c2nc(N3CCOCC3)cnc2c1 [Compound 394] |
| 10 nM | 912 nM | 3020 nM | 29500 nM | 288 nM |  | 102 °C | > 30200 nM | 138 nM |  |  |  | CC(Nc1ccc(F)c(F)c1)c1cc(C(=O)NCC(C)(C)O)cc2ncc(N3CCOCC3)nc12 (single isomer, unassigned) [Compound 348a] |
| 0.2 nM | 36 nM | 174 nM | 229 nM | 31 nM | 11 nM | 140 °C | > 10000 nM |  |  |  |  | OCCNCc1cc(C2CCCN2c2cc(F)cc(F)c2)c2nc(N3CCOCC3)cnc2c1 (stereo not shown) [Compound 14] |
|  |  |  |  | 9 nM | 9 nM | 98 °C |  |  |  |  |  | Cc1c(F)cccc1NCc1cc(C(=O)NCCN(C)C)cc2ncc(N3CCOCC3)nc12 [Compound 328] |
| 2 nM | 324 nM | 1660 nM |  |  |  | 327 °C | > 30200 nM | 31 nM | 66 nM |  |  | CC(Nc1cccc(F)c1)c1cc(C(=O)N2CCC[C@H]2CO)cc2ncc(N3CCOCC3)nc12 (single isomer, unassigned) [Compound 115] |
| 16 nM | 1820 nM | 6030 nM | 1480 nM | 389 nM | 162 nM | 80 °C |  |  |  |  |  | CC(c1cc(CO)cc2ncc(N3CCOCC3)nc12)N(C)c1cccc(F)c1 (stereo not shown) [Compound 111] |
| 0.1 nM | 1 nM |  |  |  |  | 80 °C |  |  |  | 1 nM | 0.3 nM | CNCCN(C)C(=O)c1cc(C2CCCN2c2cc(F)cc(F)c2)c2nc(N3CCOCC3)cnc2c1 (stereo not shown) [Compound 18] |
| 0.1 nM |  | 2510 nM | 1740 nM | 6 nM | 3 nM | 145 °C |  |  |  |  |  | CC(Nc1cc(F)cc(F)c1)c1cc(C(=O)NCCN(C)C)cc2ncc(N3CCOCC3)nc12 (stereo not shown) [Compound 183] |
| 69 nM | 5130 nM | 11500 nM | > 30200 nM |  |  | 136 °C | > 30200 nM |  |  |  |  | CC(Nc1cccc(F)c1)c1cc(C(=O)N2CCC[C@H](O)C2)cc2ncc(N3CCOCC3)nc12 (single isomer, unassigned) [Compound 320b] |
| 7 nM | 724 nM | 2040 nM | 7940 nM |  |  | 115 °C | 10500 nM |  |  |  |  | Cc1ccc(NC(C)c2cc(C(=O)NCCN(C)C)cc3ncc(N4CCOCC4)nc23)cc1F (single isomer, unassigned) [Compound 407a] |
| 2400 nM | > 30200 nM | > 30200 nM | > 30200 nM |  |  | 115 °C | > 30200 nM |  |  |  |  | CC(Oc1cc(F)cc(F)c1)c1cc(C(=O)NCCO)cc2ncc(N3CCOCC3)nc12 (single isomer, unassigned) [Compound 200] |
| 29 nM |  | 5750 nM | 4270 nM | ~331 nM | 148 nM | 152 °C |  |  |  |  |  | C[C@H](Nc1cc(F)cc(F)c1)c1cc(C(=O)NCCN(C)C)cc2ncc(N3CCOCC3)nc12 [Compound 185] |
| 11500 nM | > 30200 nM | > 30200 nM | > 30200 nM |  |  | 199.5 °C | > 30200 nM |  |  |  |  | COC(=O)c1cc(C(C)Nc2cccc(F)c2)c2nc(N3CCOCC3)cnc2c1 (single isomer, unassigned) [Compound 262b] |
| 117 nM | 2190 nM | 18600 nM | > 30200 nM |  |  | 80 °C | > 30200 nM |  |  |  |  | CC(Oc1ccc(F)c(F)c1)c1cc(C(=O)N2CCN3CCC[C@@H]3C2)cc2ncc(N3CCOCC3)nc12 (mixture of isomers) [Compound 375] |
| > 30200 nM | > 30200 nM | > 30200 nM | > 30200 nM |  |  | 186 °C | > 30200 nM |  |  |  |  | COC(=O)c1cc(C(C)Nc2ccc(C)c(F)c2)c2nc(N3CCOCC3)cnc2c1 (stereo not shown) [Compound 293] |

| SMILES | Kd (PI3Kβ) | Kd (PI3Kδ) | Kd (kinase enzymes [1]) | Kd (kinase enzymes [2]) | IC50 [3, 6] | IC50 [4, 6] | melting point | Kd (kinase enzymes [5]) | IC50 [4, 7] | IC50 [3, 7] | IC50 ([3]; Homo sapiens, PC-3, 1 h) | IC50 ([4]; Homo sapiens, PC-3, 1 h) |
| --- | --- | --- | --- | --- | --- | --- | --- | --- | --- | --- | --- | --- |
| C[C@@H](Nc1cc(F)cc(F)c1)c1cc(C(=O)NCCN(C)C)cc2ncc(N3CCOCC3)nc12 [Compound 184] | 0.2 nM |  | 599 nM | 994 nM | 2 nM | 2 nM | 157 °C | 18900 nM |  |  |  |  |
| CN(C)C(=O)c1cc(C2CCCN2c2cc(F)cc(F)c2)c2nc(N3CCOCC3)cnc2c1 (stereo not shown) [Compound 26] | 2 nM | 117 nM | 174 nM | 1320 nM | 4 nM | ~1.35 nM | 80 °C |  |  |  |  |  |
